Assays:
[1] = system: high-grade serous ovarian cancer; assay: Antitumor activity: RECIST v1.1 response and time on treatment; assay type: in vivo, human
[2] = system: α-FR–overexpressing preclinical model; assay: Combination of CT900 and PARP inhibition, growth inhibition; assay type: cell-based; details: Supplementary Fig. S3

`C#CCN(c1ccc(C(=O)N[C@@H](CCC(=O)N[C@H](CCC(=O)O)C(=O)O)C(=O)O)cc1)[C@H]1CCc2cc3nc(CO)[nH]c(=O)c3cc21` [CT900, N-[4-[2-propyn-1-yl[(6S)-4,6,7,8-tetrahydro-2-(hydroxymethyl)-4-oxo-3H-cyclopenta [g]quinazolin-6-yl]amino]benzoyl]-l-gamma-glutamyl-D-glutamic acid] was tested, and the “RECIST v1.1 response rate” value ([1]; 6 mg/m^2/q2Wk, medium and high α-FR, 0/9) was 0%, the “Patients who received treatment for ≥16 weeks” value ([1]; 12 mg/m^2/q2Wk, medium and high α-FR, 5/25) was 20% and the “RECIST v1.1 response rate” value ([1]; 12 mg/m^2/q3Wk, medium and high α-FR, 1/5) was 20%. For the same molecule, the Partial responses ([1]; dose escalation cohort, high-grade serous ovarian cancer, 4 of 11) was 36.4%, the “Overall response rate (ORR)” value ([1]; expansion cohorts, regardless of α-FR status, 14/64) was 21.9% and the “Effect of combination of CT900 and PARP inhibition” value [2] was “synergistic growth inhibition”.

Reference: article PMC9623233 (Clinical Cancer Research, 2022)
